Measured values from the supplement of paper PMC3493320.

The compounds below were run on NCI-H295R (assay: IC50 (antiproliferative, ATP content)). Details: 48 h.
Procedure, shortened: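 Serum-free ITS-supplemented DMEM was used to seed 1500 adrenocortical carcinoma cells per well in 1536-well plates, which were cultured overnight. Eight final concentrations of each library compound, from 0.6 nM to 46 µM, were added by pin transfer, followed by 48 h at 37 °C in 5% CO2 and a CellTiter-Glo ATP read after 20 min at room temperature. Luminescence was set against vehicle and positive-control wells, and the IC50 was obtained by logistic curve fitting. Any compound with no concentration response was entered as above the top dose.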

Row | SMILES | IC50 [µM]
1 | COc1cc(N)c(Cl)cc1C(=O)NC1CCN(Cc2ccccc2)CC1.O=C(O)/C=C\C(=O)O | > 46
2 | O=C(CO)[C@@H](O)[C@H](O)[C@@H](O)C(=O)[O-].O=C(CO)[C@@H](O)[C@H](O)[C@@H](O)C(=O)[O-].[Ca+2] | > 46
3 | O=C(CCN1CCN(CCO)CC1)N1c2ccccc2Sc2ccc(C(F)(F)F)cc21 | > 46
4 | CC(=O)CC(c1ccccc1)c1c([O-])c2ccccc2oc1=O.[K+] (configuration not stated) | > 46
5 | COc1cc2nc(N(C)CCCNC(=O)C3CCCO3)nc(N)c2cc1OC.Cl (configuration not stated) | > 46
6 | COc1ccc(CCN(C)CCCC(C#N)(c2cc(OC)c(OC)c(OC)c2)C(C)C)cc1OC.Cl (configuration not stated) | > 46
7 | CCc1c(C)[nH]c2c1C(=O)C(CN1CCOCC1)CC2 (configuration not stated) | > 46
8 | O[C@](CN2N=CN=C2)([C@H]([C@@]3=C(F)C=NC=N3)C)C1=CC=C(F)C=C1F | > 46
9 | O=c1[nH]c(=O)n([C@H]2C[C@H](O)[C@@H](CO)O2)cc1Br | > 46
10 | C=C1CC[C@@H]2[C@](C)(CO)[C@H](O)CC[C@@]2(C)[C@@H]1C/C=C1/C(=O)OC[C@H]1O | > 46
11 | O=C(/C=C/c1ccc(O)c(O)c1)O[C@@H]1C[C@@](OC(=O)/C=C/c2ccc(O)c(O)c2)(C(=O)O)C[C@@H](O)[C@@H]1O | > 46
12 | Cc1ccccc1OCC(O)CO (configuration not stated) | > 46
13 | COC1CC(=C(c2cccs2)c2cccs2)C[N+](C)(C)C1.[Br-] (configuration not stated) | > 46
14 | Clc1ccc(C2(Cn3cncn3)OCCO2)c(Cl)c1 | > 46
15 | O=C1c2ccccc2C(=O)c2c1ccc(O)c2O | > 46
16 | NC(=O)c1ncn([C@@H]2O[C@H](CO)[C@@H](O)[C@H]2O)n1 | > 46
17 | CC1CCCC(C)N1NC(=O)c1ccc(Cl)c(S(N)(=O)=O)c1 (configuration not stated) | > 46
18 | C[C@H]1c2cccc(O)c2C(=O)C2=C(O)[C@]3(O)C(=O)C(C(N)=O)=C(O)[C@@H](N(C)C)[C@@H]3[C@@H](O)[C@@H]21.Cl | > 46
19 | CC(N)C12CC3CC(CC(C3)C1)C2.Cl (configuration not stated) | > 46
20 | CC[N+](CC)(CCNC(=O)C(=O)NCC[N+](CC)(CC)Cc1ccccc1Cl)Cc1ccccc1Cl.[Cl-].[Cl-] | > 46
21 | CN1Cc2c(N)cccc2C(c2ccccc2)C1.O=C(O)/C=C\C(=O)O (configuration not stated) | > 46
22 | CCN(CC)CCNC(=O)c1cc(Br)c(N)cc1OC | > 46
23 | CC(=O)N[C@H]1C(O)O[C@H](CO)[C@@H](O)[C@@H]1O (some centres not stated) | > 46

Row | SMILES | IC50 [µM]
24 | N=C1NCCC(C2NC(=O)/C(=C/NC(N)=O)NC(=O)C(CNC(=O)CC(N)CCCN)NC(=O)C(CO)NC(=O)C(N)CNC2=O)N1.O=S(=O)(O)O (configuration not stated) | > 46
25 | C#C[C@]1(O)C=C[C@H]2[C@@H]3CCC4=CC(=O)CC[C@@H]4[C@H]3CC[C@@]21CC | > 46
26 | O=P(CC(N2C[C@H]([C@H]3CCCCC3)C[C@H]2[C@@](O)=O)=O)(OC(OC(CC)=O)C(C)C)CCCCC1=CC=CC=C1 (some centres not stated) | > 46
27 | Cl.Nc1ccc(/N=N/c2ccccc2)c(N)n1 | > 46
28 | COc1ccc(/C=N/NC(=O)c2ccncc2)cc1OC | > 46
29 | C[C@@H]1C[C@H]2[C@@H]3CCC4=CC(=O)C=C[C@]4(C)[C@@]3(F)C(O)C[C@]2(C)[C@H]1C(=O)CO (some centres not stated) | > 46
30 | Cc1ccc(S(=O)(=O)[O-])cc1C.[Na+] | > 46
31 | CCOCC(O)COc1ccc(NC(=O)CC[S+](C)C)cc1.Cc1ccc(S(=O)(=O)[O-])cc1 (configuration not stated) | > 46
32 | COc1ccc2cc3[n+](cc2c1OC)CCc1cc2c(cc1-3)OCO2.[Cl-] | > 46
33 | O=C1C[C@@H]2OCC=C3CN4CC[C@]56c7ccccc7N1[C@H]5[C@H]2[C@H]3C[C@H]46 | > 46
34 | CC(=O)N(CC(C)C(=O)O)c1c(I)cc(I)c(N)c1I (configuration not stated) | > 46
35 | O=C(CSC#N)O[C@H]2[C@]1(C)CC[C@H](C2)[C@](C)1C | > 46
36 | N=C(N)NCCCC[C@@H]1NC(=O)CCSSC[C@@H](C(N)=O)NC(=O)[C@@H]2CCCN2C(=O)[C@H](Cc2c[nH]c3ccccc23)NC(=O)[C@H](CC(=O)O)NC(=O)CNC1=O | > 46
37 | O=C([O-])Cc1ccccc1Nc1c(Cl)cccc1Cl.[Na+] | > 46
38 | Cc1c(C)n(Cc2ccccc2)c2ccc(C(=O)OCCN(C)C)cc12 | > 46
39 | CCCCc1cc2ccccc2c(OCCN(C)C)n1.Cl | > 46
40 | O=C([O-])P(=O)([O-])[O-].[Na+].[Na+].[Na+] | > 46
41 | CC(COc1ccccc1)NC(C)C(O)c1ccc(O)cc1.Cl (configuration not stated) | > 46
42 | O=C([C@@H]([C@]4=CC=CC=C4)CO)O[C@@H]2C[C@@H]3[C@H]1O[C@H]1[C@@H]([N@+](C)3C)C2 | > 46
43 | CO/N=C(\C(=O)N[C@@H]1C(=O)N2C(C(=O)[O-])=C(C[n+]3cccc4c3CCC4)CS[C@H]12)c1csc(N)n1.O=S(=O)(O)O | > 46
44 | CC[N+](C)(CC)CCOC(=O)C(O)(c1ccccc1)c1ccccc1.[Br-] | > 46
45 | CSCCC(N)C(=O)O (configuration not stated) | > 46
46 | O=S(C1=CC=CC2=C1NC[C@H](C)C2)(N[C@@H](CCCNC(N)=N)C(N3[C@@H]([C@](O)=O)C[C@H](C)CC3)=O)=O | > 46

Row | SMILES | IC50 [µM]
47 | O[C@@H]([C@@H]1O\C(=C/[C@H](NC(N)=N)[C@H]1NC(C)=O)C(O)=O)[C@H](O)CO | > 46
48 | CC(=O)N(CC(O)CO)c1c(I)c(C(=O)NCC(O)CO)c(I)c(C(=O)NCC(O)CO)c1I (configuration not stated) | > 46
49 | Oc1cccc(O)c1O | > 46
50 | Cc1cccc(C)c1NC(=O)CN(CC(=O)O)CC(=O)O | > 46
51 | CCCC[N@@+]1(C)[C@@H]2C[C@@H](OC(=O)[C@H](CO)c3ccccc3)C[C@H]1[C@@H]1O[C@@H]12.[Br-] | > 46
52 | Cc1ccc(C(=O)c2ccc(CC(=O)[O-])n2C)cc1.O.O.[Na+] | > 46
53 | CN1CCC\C(C1)=C(/C2=CC=CS2)C3=CC=CS3 | > 46
54 | NS(=O)(=O)c1cc2c(cc1C(F)(F)F)NC(Cc1ccccc1)NS2(=O)=O (configuration not stated) | > 46
55 | CC[C@@H](C)[C@H](N)C(=O)O | > 46
56 | CC(CCc1ccc(O)cc1)NCC(O)c1ccc(O)cc1.Cl (configuration not stated) | > 46
57 | NC(=O)CS(=O)C(c1ccccc1)c1ccccc1 (configuration not stated) | > 46
58 | CCn1nc(C(=O)O)c(=O)c2cc3c(cc21)OCO3 | > 46
59 | C#C[C@]1(O)CC[C@H]2[C@@H]3CCC4=CC(=O)CC[C@@H]4[C@H]3CC[C@@]21C | > 46
60 | CON=C(C(=O)N[C@@H]1C(=O)N2C(C(=O)[O-])=C(CSc3nc(C)c(CC(=O)[O-])s3)CS[C@H]12)c1csc(N)n1.[Na+].[Na+] | > 46
61 | CC(=O)Oc1ccc2c3c1O[C@H]1[C@@H](OC(C)=O)C=C[C@H]4[C@@H](C2)N(C)CC[C@@]341 | > 46
62 | C[C@H]1C(=O)NC2=Nc3cccc(Cl)c3CN21 | > 46
63 | COS(=O)(=O)[O-].C[N+]1(C)CCCCC1COC(=O)C(O)(c1ccccc1)c1ccccc1 (configuration not stated) | > 46
64 | OCCOc1ccccc1 | > 46
65 | CC(C(=O)O)c1ccc2c(c1)Cc1cccnc1O2 (configuration not stated) | > 46
66 | [H][C@@]1(CC\C3=C(C4=CC=CS4)/C2=CC=CS2)[N@+](CCCC1)(C3)C.[Br-] | > 46
67 | CCCCC[C@H](O)/C=C/[C@H]1[C@H](O)CC(=O)[C@@H]1C/C=C\CCCC(=O)O | > 46
68 | O=C([O-])CCC/C=C\C[C@@H]1[C@@H](/C=C/[C@@H](O)COc2cccc(Cl)c2)[C@H](O)C[C@@H]1O.[Na+] | > 46
69 | CN1C(C)(C)CCCC1(C)C.O=C(O)[C@@H](O)[C@H](O)C(=O)O | > 46

Row | SMILES | IC50 [µM]
70 | CC(C)c1cccc(C(C)C)c1O | > 46
71 | CNC[C@H](O)[C@@H](O)[C@@H](O)[C@H](O)CO.Cc1c(Nc2ncccc2C(=O)O)cccc1C(F)(F)F | > 46
72 | O=C(C=Cc1ccccc1)NCCO | > 46
73 | C(N3C2)(SCC3)=N[C@H]2[C@@]1=CC=CC=C1.Cl | > 46
74 | CCN(Cc1ccncc1)C(=O)C(CO)c1ccccc1 (configuration not stated) | > 46
75 | CCCCNC(=N)NC(=N)N | > 46
76 | Cc1ncc[nH]1 | > 46
77 | CNC(=O)NC(O)C(Cl)(Cl)Cl (configuration not stated) | > 46
78 | CC(=O)Nc1ccc(CC(=O)O)cc1 | > 46
79 | O=C1O[C@H]([C@@H](O)CO)C(O)=C1O | > 46
80 | CC[C@H]1OC(=O)C[C@@H](O)[C@H](C)[C@@H](O[C@@H]2O[C@H](C)[C@@H](O[C@H]3C[C@@](C)(O)[C@@H](O)[C@H](C)O3)[C@H](N(C)C)[C@H]2O)[C@@H](CC=O)C[C@@H](C)C(=O)/C=C/C(C)=C/[C@@H]1CO[C@@H]1O[C@H](C)[C@@H](O)[C@@H](OC)[C@H]1OC.O=C(O)[C@H](O)[C@@H](O)C(=O)O | > 46
81 | Cc1cc(O)cc(C)c1Cl | > 46
82 | CN1C(=O)CN=C(c2ccccc2)c2cc([N+](=O)[O-])ccc21 | > 46
83 | CCn1cc(C(=O)O)c(=O)c2cc(F)c(N3CCNCC3)nc21 | > 46
84 | COc1ncnc(NS(=O)(=O)c2ccc(N)cc2)c1OC | > 46
85 | CC(=O)Oc1ccc(C)cc1 | > 46
86 | O=[C@](O)[C@H]2N(C([C@H](C)N[C@H]([C@@](OCC)=O)CCC3=CC=CC=C3)=O)[C@@]1([H])CCCC[C@@]([H])1C2 | > 46
87 | CCCCCCc1ccc(O)cc1O | > 46
88 | C[C@H]1O[C@H]1P(=O)([O-])[O-].[Ca+2] | > 46
89 | O=P([O-])([O-])OP(=O)([O-])[O-].[Na+].[Na+].[Na+].[Na+] | > 46
90 | Cc1c(I)c(=O)n(-c2ccccc2)n1C | > 46
91 | Cl.O=C1OC(CN2CCOCC2)CN1N=Cc1ccc([N+](=O)[O-])o1 (configuration not stated) | > 46
92 | CC1(C)S[C@@H]2[C@H](NC(=O)[C@H](NC(=O)N3CCN(S(C)(=O)=O)C3=O)c3ccccc3)C(=O)N2[C@H]1C(=O)O | > 46
